In assay [1] the test system is GP2D cells. Description: Cell proliferation assay (CellTiter-Glo), K-Ras G12D cells. The note with it: GP2D cells (K-Ras G12D); read-out: Inhibition of GP2D Cells (IC50). It counts as cell-based. In a few lines: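 CellTiter-Glo luminescence, taken roughly 5 days after dosing, measured growth of G12D-mutant GP2D cells in DMEM/2 mM glutamine/10% FBS. Compound dilution series (e.g., 9 points, 3-fold) added the day after plating. Four-parameter fitting gave IC50.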
On the technique in general: Cellular ATP, detected with luciferase, serves as a proxy for viable cell number.

Assay [2] relates to A549 cells. Description: Cell proliferation assay (CellTiter-Glo), K-Ras G12S cells. It counts as cell-based. The settings on record: for IC50: Homo sapiens, A549, A549 cells (K-Ras G12S), read-out: Inhibition of A549 Cells (IC50); for ratio of IC50 against a G12D cell line to IC50 against a G12S cell line: K-Ras G12D cell line such as GP2D relative to K-Ras G12S cell line such as A549, greater than 1, 2, 3, 4, 5, 10, 15 or even greater, 8640 min. On the procedure: A549 (ATCC CRL-185) and LS123 (ATCC CRL-255) cell lines comprise a G12S mutation and can be used to assess Ras cellular signaling in vitro, e.g., in response to the compounds herein. A549 culture medium is prepared with RPMI-1640 and 10% heat-inactivated FBS. LS123 culture medium is prepared with RPMI-1640 and 10% heat-inactivated FBS. A CellTiter-Glo (CTG) luminescent based assay (Promega) is used to assess growth of the cells, as a measurement of the ability of the compounds herein to inhibit Ras signaling in the cells. The cells (e.g., 800 per well) are seeded in their respective culture medium in standard tissue culture-treated 384-well format plates (Falcon #08-772-116) or ultra-low attachment surface 384-well format plates (S-Bio # MS-9384WZ). The day after plating, cells are treated with a dilution series (e.g., a 10 point 3-fold dilution series) of the compounds herein (e.g., approximately 40 µl final volume per well). Cell viability can be monitored (e.g., approximately 6 days later) according to the manufacturer's recommended instructions, where the CellTiter-Glo reagent is added (e.g., approximately 10 µl), vigorously mixed, covered, and placed on a plate shaker (e.g., approximately for 20 min) to ensure sufficient cell lysis prior to assessment of luminescent signal. The IC50 values are determined using the four parameter fit. The resulting IC50 value is a measurement of the ability of the compounds herein to reduce cell growth of Ras-driven cells (e.g., tumor cell lines) in vitro and/or in vivo.

In assay [3] the target is T1, K-Ras G12S (Homo sapiens, UniProt P01116, G12S).
T1 construct: made in house; host or cells: E. coli (e.g., BL21 (DE3))
The experiment in a line: HTRF assay of the K-Ras / SOS1 interaction. In kind it is biochemical. The note with it: IC50 (against K-Ras G12D) to IC50 (against K-Ras G12S). In a few lines:
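Compounds (duplicates, 10 µM to 0.01 µM) were incubated ≥~10 min with Eu-labelled GST-K-Ras G12S and XL665-labelled His-hSOS1 in HEPES pH 7.4 buffer containing NaCl, DTT, BSA and Igepal. Disruption measured as HTRF emission ratio 665/620 nm, fitted to IC50.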
For orientation: Time-resolved FRET reads energy transfer from a long-lived donor to a nearby acceptor.

Usually IC50 stands for the concentration needed to halve the response being measured.

Like-named read-outs stand apart in the source and are kept apart here.

T1 sequence (P01116 1-188 isoform P01116-2 G12S): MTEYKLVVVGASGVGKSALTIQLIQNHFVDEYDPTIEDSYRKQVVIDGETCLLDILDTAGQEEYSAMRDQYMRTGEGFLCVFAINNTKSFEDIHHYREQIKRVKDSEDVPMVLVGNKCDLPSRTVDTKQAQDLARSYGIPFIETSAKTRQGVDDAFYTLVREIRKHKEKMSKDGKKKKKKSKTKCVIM

As for `N#Cc1c(N)sc2c(F)ccc(-c3c(Cl)cc4c(N5CC6CCC(C5)N6C(=O)n5ccnc5)nc(OC[C@@]56CCCN5C[C@H](F)C6)nc4c3F)c12` [Compound A105, 4-(4-(8-(1H-imidazole-1-carbonyl)-3,8-diazabicyclo[3.2.1]octan-3-yl)-6-chloro-8-fluoro-2-(((2R,7aS)-2-fluorotetrahydro-1H-pyrrolizin-7a(5H)-yl)methoxy)quinazolin-7-yl)-2-amino-7-fluorobenzo[b]thiophene-3-carbonitrile], the IC50 is not above 1 µM in assay [1] and not above 0.5 µM in assay [2] (bin ≤ 500 nM).
`N#Cc1c(N)sc2c(F)ccc(-c3c(Cl)cc4c(N5CCC6C5CCN6C(=O)n5cncn5)nc(OC[C@@]56CCCN5C[C@H](F)C6)nc4c3F)c12` (stereo partly drawn) [Compound A108, 4-(4-(4-(1H-1,2,4-triazole-1-carbonyl)hexahydropyrrolo[3,2-b]pyrrol-1(2H)-yl)-6-chloro-8-fluoro-2-(((2R,7aS)-2-fluorotetrahydro-1H-pyrrolizin-7a(5H)-yl)methoxy)quinazolin-7-yl)-2-amino-7-fluorobenzo[b]thiophene-3-carbonitrile]: the “Ratio of IC50 KRAS G12D vs. IC50 KRAS G12S” value in assay [3] is “A (A: indicates that the ratio of IC50 against KrasG12D vs. IC50 against KrasG12S is 1-fold or greater)”. In addition, the figures for the IC50 in assay [1] and in assay [2] (bin ≤ 500 nM) were not above 1 µM and not above 0.5 µM, respectively.
Turning to `Cc1nc(C)n(C(=O)N2CC3(CCCCN(c4nc(OC[C@@]56CCCN5C[C@H](F)C6)nc5c(F)c(-c6ccc(F)c7sc(N)c(C#N)c67)c(Cl)cc45)C3)C2)n1` [Compound A116, 2-amino-4-(6-chloro-4-(2-(3,5-dimethyl-1H-1,2,4-triazole-1-carbonyl)-2,6-diazaspiro[3.6]decan-6-yl)-8-fluoro-2-(((2R,7aS)-2-fluorotetrahydro-1H-pyrrolizin-7a(5H)-yl)methoxy)quinazolin-7-yl)-7-fluorobenzo[b]thiophene-3-carbonitrile], the values for the IC50 in assay [1] and in assay [2] (bin ≤ 500 nM) were not above 1 µM and not above 0.5 µM, respectively.
Taken in the same sequence, the figures for `C#Cc1c(F)ccc2cc(O)cc(-c3ncc4c(N5CC6CCC(C5)N6C(=O)n5cc(C#N)cn5)nc(OC[C@@]56CCCN5C[C@H](F)C6)nc4c3F)c12` [Compound A143, 1-(3-(7-(8-ethynyl-7-fluoro-3-hydroxynaphthalen-1-yl)-8-fluoro-2-(((2R,7aS)-2-fluorotetrahydro-1H-pyrrolizin-7a(5H)-yl)methoxy)pyrido[4,3-d]pyrimidin-4-yl)-3,8-diazabicyclo[3.2. 1]octane-8-carbonyl)-1H-pyrazole-4-carbonitrile] were not above 1 µM and not above 0.5 µM.
Regarding `Nc1nc2c(-c3c(Cl)cc4c(N5CC6CN(C(=O)n7cncn7)C6C5)nc(OC[C@@]56CCCN5C[C@H](F)C6)nc4c3F)ccc(F)c2s1` (stereo partly drawn) [Compound A177, (3-(7-(2-amino-7-fluorobenzo[d]thiazol-4-yl)-6-chloro-8-fluoro-2-(((2R,7aS)-2-fluorotetrahydro-1H-pyrrolizin-7a(5H)-yl)methoxy)quinazolin-4-yl)-3,6-diazabicyclo[3.2.0]heptan-6-yl)(1H-1,2,4-triazol-1-yl)methanone], the IC50 in assay [1] is not above 1 µM; in assay [2] (bin 500 nM to 5 µM) it was 0.5 to 5 µM.
As to `Cc1ncn(C(=O)N2CC3CN(c4nc(OC[C@@]56CCCN5C[C@H](F)C6)nc5c(F)c(-c6ccc(F)c7sc(N)c(C#N)c67)c(Cl)cc45)CC32)n1` (stereo partly drawn) [Compound A196, 2-amino-4-(6-chloro-8-fluoro-2-(((2R,7aS)-2-fluorotetrahydro-1H-pyrrolizin-7 a(5H)-yl)methoxy)-4-(6-(3-methyl-1H-1,2,4-triazole-1-carbonyl)-3,6-diazabicyclo[3.2.0]heptan-3-yl)quinazolin-7-yl)-7-fluorobenzo[b]thiophene-3-carbonitrile], the IC50 in assay [1] was not above 1 µM; in assay [2] (bin ≤ 500 nM) it was not above 0.5 µM.
Regarding `N#Cc1c(N)sc2c(F)ccc(-c3c(Cl)cc4c(N5CC6CCC(C5)N6C(=O)Nc5ncccn5)nc(OC[C@@]56CCCN5C[C@H](F)C6)nc4c3F)c12` [Compound A215, 3-(7-(2-amino-3-cyano-7-fluorobenzo[b]thiophen-4-yl)-6-chloro-8-fluoro-2-(((2R,7aS)-2-fluorotetrahydro-1H-pyrrolizin-7a(5H)-yl)methoxy)quinazolin-4-yl)-N-(pyrimidin-2-yl)-3,8-diazabicyclo[3.2. 1]octane-8-carboxamide], the figures for the IC50 in assay [1] and in assay [2] (bin ≤ 500 nM) were not above 1 µM and not above 0.5 µM, respectively.
Regarding `N#Cc1c(N)sc2c(F)ccc(-c3c(Cl)cc4c(N5CCC6CN(C(=O)Nc7ncccn7)CCC65)nc(OC[C@@]56CCCN5C[C@H](F)C6)nc4c3F)c12` (stereo partly drawn) [Compound A251, 1-(7-(2-amino-3-cyano-7-fluorobenzo[b]thiophen-4-yl)-6-chloro-8-fluoro-2-(((2R,7aS)-2-fluorotetrahydro-1H-pyrrolizin-7a(5H)-yl)methoxy)quinazolin-4-yl)-N-(pyrimidin-2-yl)octahydro-5H-pyrrolo[3,2-c]pyridine-5-carboxamide], the IC50 in assay [1] is 1 to 10 µM; in assay [2] (bin ≤ 500 nM), not above 0.5 µM. For the same compound, the “ratio of IC50 against a G12D cell line to IC50 against a G12S cell line” value in assay [2] is “greater than 1”.
Take `N#Cc1cnn(C(=O)N2C3CCC2CN(c2nc(OC[C@@]45CCCN4C[C@H](F)C5)nc4c(F)c(-c5ccc(F)c6sc(N)nc56)c(Cl)cc24)C3)c1` [Compound A253, 1-(3-(7-(2-amino-7-fluorobenzo[d]thiazol-4-yl)-6-chloro-8-fluoro-2-(((2R,7aS)-2-fluorotetrahydro-1H-pyrrolizin-7a(5H)-yl)methoxy)quinazolin-4-yl)-3,8-diazabicyclo[3.2. 1]octane-8-carbonyl)-1H-pyrazole-4-carbonitrile]: the IC50 in assay [1] is not above 1 µM; in assay [2] (bin 500 nM to 5 µM) it was 0.5 to 5 µM.
Take `Cc1nc(C(C)C)nn1C(=O)N1CC2(CCCCN(c3nc(OC[C@@]45CCCN4C[C@H](F)C5)nc4c(F)c(-c5ccc(F)c6sc(N)c(C#N)c56)c(Cl)cc34)C2)C1` [Compound A305, 2-amino-4-(6-chloro-8-fluoro-2-(((2R,7aS)-2-fluorotetrahydro-1H-pyrrolizin-7 a(5H)-yl)methoxy)-4-(2-(3-isopropyl-5-methyl-1H-1,2,4-triazole-1-carbonyl)-2,6-diazaspiro[3.6]decan-6-yl)quinazolin-7-yl)-7-fluorobenzo[b]thiophene-3-carbonitrile]: the IC50 was 1 to 10 µM in assay [1] and not above 0.5 µM in assay [2] (bin ≤ 500 nM). Further, the “ratio of IC50 against a G12D cell line to IC50 against a G12S cell line” value in assay [2] is “greater than 1”.
For the compound `N#Cc1c(N)sc2c(F)ccc(-c3c(Cl)cc4c(N5CC6CN(C(=O)n7cncn7)C6C5)nc(OC[C@@]56CCCN5C[C@H](F)C6)nc4c3F)c12` (stereo partly drawn) [Compound A306, 4-(4-(6-(1H-1,2,4-triazole-1-carbonyl)-3,6-diazabicyclo[3.2.0]heptan-3-yl)-6-chloro-8-fluoro-2-(((2R,7aS)-2-fluorotetrahydro-1H-pyrrolizin-7a(5H)-yl)methoxy)quinazolin-7-yl)-2-amino-7-fluorobenzo[b]thiophene-3-carbonitrile], the IC50 in assay [1] is not above 1 µM; in assay [2] (bin 500 nM to 5 µM), 0.5 to 5 µM.

For the origin of these results see patent EP4389751A1, “HETEROCYCLIC COMPOUNDS AND USES THEREOF” (Kumquat Biosciences Inc., priority 2021, dated 2024).
